Earlier results as cited in patent US12653831B2, “Methods for the non-toxic treatment for opioid drug withdrawal combining noribogaine and cannabinoids” (priority 2019, dated 2026).
Where two headings read alike, the source gives them in different places.

Columns and labels:
CB2 receptors = CB2 receptors (Homo sapiens, UniProt P34972)
β-amyloid-injected mice = conditions: subchronic administration for 3 weeks
primary microglia = conditions: for sensitivity of the induced migration to cannabinoid receptor antagonists: with CB(1)/CB(2) antagonists
rat primary microglia = conditions: ATP 400 μM
N13 microglial cells = conditions: ATP 400 μM, cultured N13 microglial cells
[1] = high doses, various animal models
[2] = not given; remark: listed apart in the source

Sequence of CB2 receptors (P34972 whole entry): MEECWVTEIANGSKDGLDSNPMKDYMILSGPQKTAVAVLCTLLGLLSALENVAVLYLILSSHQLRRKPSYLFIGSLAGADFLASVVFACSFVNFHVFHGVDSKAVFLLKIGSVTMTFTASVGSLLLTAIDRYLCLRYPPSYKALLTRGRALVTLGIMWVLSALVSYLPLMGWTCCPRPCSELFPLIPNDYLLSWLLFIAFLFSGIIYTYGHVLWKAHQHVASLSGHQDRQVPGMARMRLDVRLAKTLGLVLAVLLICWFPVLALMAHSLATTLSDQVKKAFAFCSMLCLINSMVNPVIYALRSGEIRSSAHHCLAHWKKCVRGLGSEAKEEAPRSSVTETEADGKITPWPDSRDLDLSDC

SMILES: C=C(C)[C@@H]1CCC(C)=C[C@H]1c1c(O)cc(CCCCC)cc1O [CBD, cannabidiol]
- binding to CB2 receptors (CB2 receptors): binds very weakly
- cytokine gene expression (β-amyloid-injected mice): able to prevent
- learning of a spatial navigation task (β-amyloid-injected mice): able to prevent
- effect on primary microglia migration (primary microglia): promoted
- sensitivity of the induced migration to cannabinoid receptor antagonists (primary microglia): blocked by CB(1) and/or CB(2) antagonists
- effect on ATP-induced increase in intracellular calcium ([Ca(2+)](i)) (rat primary microglia): concentration-dependently decreased
- tolerability (in humans): well tolerated without side effects
- psychoactive or cognitive effects (in vivo): does not induce psychoactive or cognitive effects
- effect on ATP-induced increase in intracellular calcium ([Ca(2+)](i)) (N13 microglial cells): concentration-dependently decreased

SMILES: CCCCCCC(C)(C)c1cc(OC)c([C@@H]2C=C(CO)[C@@H]3C[C@H]2C3(C)C)c(OC)c1 [HU-308]
- effect on primary microglia migration (primary microglia): induced
- sensitivity of the induced migration to cannabinoid receptor antagonists (primary microglia): blocked by a CB(2) antagonist only
- effect on ATP-induced increase in intracellular calcium ([Ca(2+)](i)) (rat primary microglia): without effect
- effect on ATP-induced increase in intracellular calcium ([Ca(2+)](i)) (N13 microglial cells): without effect

SMILES: Cc1c(C(=O)c2cccc3ccccc23)c2cccc3c2n1[C@H](CN1CCOCC1)CO3 [WIN 55,212-2, (R)-(+)-[2,3-dihydro-5-methyl-3-(4-morpholinylmethyl)pyrrolo-[1,2,3-d,e]-1,4-benzoxazin-6-yl]-1-naphthalenyl-methanone]
- cytokine gene expression (β-amyloid-injected mice): able to prevent
- learning of a spatial navigation task (β-amyloid-injected mice): able to prevent
- effect on primary microglia migration (primary microglia): promoted
- sensitivity of the induced migration to cannabinoid receptor antagonists (primary microglia): blocked by CB(1) and/or CB(2) antagonists
- effect on ATP-induced increase in intracellular calcium ([Ca(2+)](i)) (rat primary microglia): concentration-dependently decreased
- effect on ATP-induced increase in intracellular calcium ([Ca(2+)](i)) (N13 microglial cells): concentration-dependently decreased

SMILES: CC[C@H]1CC2C[C@H]3c4[nH]c5ccc(O)cc5c4CCN(C2)C13 [noribogaine, Noribogaine]
- adverse effects in preclinical toxicity studies [1]: serious cardiac and CNS adverse effects
- effect on EKG QTc interval ([2]; dose of 30 mg daily): shortens the QTc interval
- effect on EKG QTc interval ([2]; higher doses (above 60 mg/day)): increase QTc
